Where a SMILES comes first, the peptide text is derived from it.
Columns and labels:
Format in all cases: in vivo
[1] = tested on: male Wister rats; test: Effect on the fixed ratio responding in rats (FR20); conditions: s.c., 15 min before a 20 min session, dose giving count 50 with control as 100
Method: Effect on the fixed ratio responding in rats
The test was conducted according to the method described in Ahlenius S. and Engel J., Eur. J. Pharm., Vol. 15, 187-192 (1971).
Male Wister rats (weighing 240 to 320 g) were placed into Skinner box (product of Bil-Medika Co., Ltd., Japan, adapted to give a feed when a lever within the box is pressed) and made to learn how to take the food. In this test, one feed was given to the rats when the lever was pressed 20 times, i.e., fixed ratio (FR) 20. The rats showing stable FR20 response were divided into groups each including four rats.
Physiological saline (containing 1 mM of sodium hydrogencarbonate) containing a specified amount of a test compound was subcutaneously given to the rats of one group in a volume of 0.1 ml/100 g. (Physiological saline containing the above-mentioned amount of sodium hydrogencarbonate only was given to the control group). Fifteen minutes after the administration, the test animals were placed in the Skinner box, and the number of times the animals took the feed for 20 minutes was counted. The dose at which the count gained by the group of animals was 50, namely, ED50 value, was determined, with the count gained by the control group calculated as 100. The same procedure as above was repeated with use of the other test compounds.

[2] = tested on: Male ICR mice; test: Inhibitory effect on hyperlocomotion induced by administration of methylphenidate; conditions: s.c. with methylphenidate 10 mg/kg s.c., 1 hour after administration, 50 with control as 100
Method: Inhibitory effect on hyperlocomotion induced by administration of methylphenidate
Male ICR mice (weighing 24 to 30 g) were divided into groups, each including 10 mice. To one group of mice were subcutaneously given 10 mg/kg of methylphenidate and 0.1 ml/10 g of a saline solution of a specified amount of a test compound and 1 mM of sodium hydrogencarbonate. One hour after the administration, the test animals were checked for hyperlocomotion, which was measured with use of a device for measuring locomotion of small animals (wherein the motion of an animal shifts the center of graavity of the device to actuate a microswitch for the measurement of the amount of motion, see Folia Pharmacologica Japonica, 74, 629-639 (1978). For a control group, the same procedure as above was repeated except that the saline solution given was free from any test compound. The concentration of the test compound at which the result achieved by the group of animals was 50, namely, ED50 value, was determined, with the measurement obtained by the control group calculated as 100. The other compounds were tested in the same manner as above.

[3] = tested on: Male ddy mice; test: Effect on climbing behavior induced by apomorphine (Pharmacological Test 7); conditions: control 9.8 ± 0.7
Method: Effect on climbing behavior induced by apomorphine
Male ddy mice (weighing 20 to 30 g) were used, with 10 mice in each group. Each mouse was placed into a cylindrical cage, 12 cm in diameter and 14 cm in height, made up of vertical rods of 2 mm in diameter spaced apart at a distance of 10 mm in a circular arrangement. The mouse was allowed to stand therein for 2 hours. Physiological saline containing a specified amount of a test compound (and 1 mM of sodium hydrogencarbonate) was subcutaneously given to one group of mice in a volume of 1 ml/10 g. (The same dose of saline only was given to a control group). […] The test was carried out in soundproof compartments.
0: All the four legs are on the floor.
2: At least three legs are on rods.
The other compounds were tested in the same manner as above. The test was carried out in soundproof compartments. Student's t-test was resorted to for satistical treatment.

[4] = Induction of yawning behavior by the peptide itself; conditions: yawning thought to be induced by a reduction in the amount of dopamine
[5] = tested on: test animals; test: Induction of catalepsy in test animals
[6] = tested on: male Wister rats; test: Effect on yawning behavior induced by apomorphine; conditions: s.c.
Method: Effect on yawning behavior
Male Wister rats (weighing 200 to 300 g) were used, with 10 rats in each group. The rat was placed into a plastics cage (17×24×12 cm) with a floor mat and was then habituated for 30 minutes. Peptide A, peptide B, CCK-8 or the above-mentioned diluent serving as a control was subcutaneously given to the animal. Thirty minutes thereafter, 0.03 mg/kg of apomorphine was subcutaneously given to the animal. The number of yawns induced by apomorphine was counted during a period of 30 minutes following administration of apomorphine. The test was conducted in a soundproof compartment for each animal. Wilcoxon rank-sum test was resorted to for statistical treatment.

[7] = tested on: male Wister rats; test: Effect on metabolism of amine in the brain; conditions: 1 mg/kg s.c., 1 hour after dosing
Method: Effect on metabolism of amine in the brain
Unfasted male Wister rats (weighing 180 to 220 g) were used. Peptide A or peptide B was subcutaneously given to the animal at a dose of 1 mg/kg, the head was irradiated with microwave 1 hour thereafter, and amine metabolite was extracted from the brain. First, removed tissues were homogenized with 1M formic acid and centrifuged at 20,000×g for 20 minutes, and the supernatant (1 ml) was shaken with 5 ml of ethyl acetate. The 3,4-dihydroxyphenylacetic acid (DOPAC), homovanillic acid (HVA) and 5-hydroxyindoleacetic acid (5-HIAA) in the ethyl acetate layer were analyzed by high-performance liquid chromatography under the following conditions. Chemcosorb, 5-ODS, 20 cm×4.6 mm I.D. was used for a separating column, and a mobile phase (0.1M KH2 PO4 (pH 5.0)-5 mM EDTA-2Na-5% acetonitrile) was passed through the column at a flow rate of 1 ml/min. The electrochemical detector was set to an oxidation potential of +0.8 V.

[8] = tested on: Male ddy mice; test: Effect on hyperlocomotion induced by thyrotropin releasing hormone (TRH); conditions: s.c.
Method: Effect on hyperlocomotion induced by thyrotropin releasing hormone (TRH)
Male ddy mice (weighing 18 to 24.5 g) were used. The mice were placed into a transparent acrylic resin cage (26×37×11 cm) installed on Animex meter. Before experiment, the mice were allowed to habituate for 2 hours in the cage to fully lower the activity of the mice. After the completion of habituation, peptide A, peptide B or a diluent (physiological saline containing 1 mg/ml of sodium hydrogencarbonate) serving as a control was subcutaneously given to the mice. Thirty minutes thereafter, 5 mg/kg of TRH was intraperitoneally given to the animals. The activity counts during the period of 60 minutes following the administration of TRH was measured. Student's t-test was resorted to for statistical treatment.

Row | Molecule | ED50, inhibition of FR20 responding [1] [mg/kg] | Increase of DOPAC content in hypothalamus [7] | Influence on content of metabolite (DOPAC, HVA, 5-HIAA) in frontal cortex, limbic forebrain, and striatum [7] | Effect on TRH-induced hyperlocomotion (in words) [8] | also measured
1 | Pht--Tyr(SO3 H)--Met--Gly--Trp--Met--Asp--Phe--NH2 [Peptide F] | 0.0167 |  |  |  | ED50, inhibition of methylphenidate-induced hyperlocomotion [2]: 0.2513 mg/kg; Average: Mean ± S.E. (total of 7 scores), climbing behavior ([3]; 0.1 mg/kg s.c.): 7.7 ± 0.6; Average: Mean ± S.E. (total of 7 scores), climbing behavior ([3]; 0.3 mg/kg s.c.): 8.0 ± 0.8; Average: Mean ± S.E. (total of 7 scores), climbing behavior ([3]; 1.0 mg/kg s.c.): 6.8 ± 0.8
2 | CSCC[C@H](NC(=O)[C@H](Cc1ccc(OS(=O)(=O)O)cc1)NC(=O)[C@@H](N)CC(=O)O)C(=O)NCC(=O)N[C@@H](Cc1c[nH]c2ccccc12)C(=O)N[C@@H](CCSC)C(=O)N[C@@H](CC(=O)O)C(=O)N[C@@H](Cc1ccccc1)C(N)=O [CCK-8, Asp--Tyr(SO3 H)--Met--Gly--Trp--Met--Asp--Phe--NH2] |  |  |  |  | Induction of yawning behavior (in words) [4]: induces no yawning behavior whatsoever; Induction of catalepsy (side effect, in words) [5]: induces catalepsy; Effect on yawning behavior induced by apomorphine (in words) [6]: is not inhibited by CCK-8
3 | CSCC[C@H](NC(=O)[C@H](Cc1ccc(OS(=O)(=O)O)cc1)NC(=O)CCCC(=O)O)C(=O)NCC(=O)N[C@@H](Cc1c[nH]c2ccccc12)C(=O)N[C@@H](CCSC)C(=O)N[C@@H](CC(=O)O)C(=O)N[C@@H](Cc1ccccc1)C(N)=O [Peptide E, Glt--Tyr(SO3 H)--Met--Gly--Trp--Met--Asp--Phe--NH2] (HELM PEPTIDE1{[O=C(O)CCCC(=O)[*:2]].[O=C([C@H](Cc1ccc(OS(=O)(=O)O)cc1)N[*:1])[*:2]].M.G.W.M.D.F.[am]}$$$$V2.0) | 0.004 |  |  |  | 
4 | CSCC[C@H](NC(=O)[C@H](Cc1ccc(OS(=O)(=O)O)cc1)NC(=O)[C@H](CC(=O)O)NC(=O)CCCC(=O)O)C(=O)NCC(=O)N[C@@H](Cc1c[nH]c2ccccc12)C(=O)N[C@@H](CCSC)C(=O)N[C@@H](CC(=O)O)C(=O)N[C@@H](Cc1ccccc1)C(N)=O [Peptide A, Glt--Asp--Tyr(SO3 H)--Met--Gly--Trp--Met--Asp--Phe--NH2] |  | about 60% | Neither of peptide A and peptide B was found to influence | inhibit the hyperlocomotion induced by TRH | 
5 | CSCC[C@H](NC(=O)[C@H](Cc1ccc(OS(=O)(=O)O)cc1)NC(=O)[C@H](CC(=O)O)NC(=O)[C@@H]1CCC(=O)N1)C(=O)NCC(=O)N[C@@H](Cc1c[nH]c2ccccc12)C(=O)N[C@@H](CCSC)C(=O)N[C@@H](CC(=O)O)C(=O)N[C@@H](Cc1ccccc1)C(N)=O [Peptide B, pGlu--Asp--Tyr(SO3 H)--Met--Gly--Trp--Met--Asp--Phe--NH2] |  | about 60% | Neither of peptide A and peptide B was found to influence | inhibit the hyperlocomotion induced by TRH | 

From USRE32534E, “Peptides, process for preparing the same and psychodepressant compositions containing the same” (Amano Pharmaceutical Co., Ltd., priority 1982, dated 1987)
